This assay concerns the target T1, recombinant human GluN1/GluN2A receptor (Homo sapiens, UniProt Q05586+Q12879).
T1 construct: expressed in transfected cells; host or cells: HEK293, tetracycline-inducible expression
The assay can be described thus: Whole-cell patch clamp of mammalian cells (Syncropatch 384i), NMDA modulation. It counts as cell-based. To be noted: HEK293 cells, human GluN1/GluN2A, glutamate 1 μM / glycine 100 μM, -80 mV, peak amplitude increase; for EC50: read-out: EC50. The procedure, abridged: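 Modulation read as fold rise in peak current, (Icomp/Icontrol)−1, from 8 concentrations with ≥2 wells each, four-parameter fit. Compound pre-incubated 120 s then co-applied with 1 μM glutamate plus 100 μM glycine; tetracycline-inducible HEK293 GluN1/GluN2A cells clamped at −80 mV.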

The source of these data is patent publication US20240368214A1, “POSITIVE NMDA-MODULATING COMPOUNDS AND METHODS OF USE THEREOF” (SAGE THERAPEUTICS, INC., priority 2021, published 2024).

Where two headings read alike, the source gives them in different places.

T1 sequence (Q12879 23-1464, other chains not shown): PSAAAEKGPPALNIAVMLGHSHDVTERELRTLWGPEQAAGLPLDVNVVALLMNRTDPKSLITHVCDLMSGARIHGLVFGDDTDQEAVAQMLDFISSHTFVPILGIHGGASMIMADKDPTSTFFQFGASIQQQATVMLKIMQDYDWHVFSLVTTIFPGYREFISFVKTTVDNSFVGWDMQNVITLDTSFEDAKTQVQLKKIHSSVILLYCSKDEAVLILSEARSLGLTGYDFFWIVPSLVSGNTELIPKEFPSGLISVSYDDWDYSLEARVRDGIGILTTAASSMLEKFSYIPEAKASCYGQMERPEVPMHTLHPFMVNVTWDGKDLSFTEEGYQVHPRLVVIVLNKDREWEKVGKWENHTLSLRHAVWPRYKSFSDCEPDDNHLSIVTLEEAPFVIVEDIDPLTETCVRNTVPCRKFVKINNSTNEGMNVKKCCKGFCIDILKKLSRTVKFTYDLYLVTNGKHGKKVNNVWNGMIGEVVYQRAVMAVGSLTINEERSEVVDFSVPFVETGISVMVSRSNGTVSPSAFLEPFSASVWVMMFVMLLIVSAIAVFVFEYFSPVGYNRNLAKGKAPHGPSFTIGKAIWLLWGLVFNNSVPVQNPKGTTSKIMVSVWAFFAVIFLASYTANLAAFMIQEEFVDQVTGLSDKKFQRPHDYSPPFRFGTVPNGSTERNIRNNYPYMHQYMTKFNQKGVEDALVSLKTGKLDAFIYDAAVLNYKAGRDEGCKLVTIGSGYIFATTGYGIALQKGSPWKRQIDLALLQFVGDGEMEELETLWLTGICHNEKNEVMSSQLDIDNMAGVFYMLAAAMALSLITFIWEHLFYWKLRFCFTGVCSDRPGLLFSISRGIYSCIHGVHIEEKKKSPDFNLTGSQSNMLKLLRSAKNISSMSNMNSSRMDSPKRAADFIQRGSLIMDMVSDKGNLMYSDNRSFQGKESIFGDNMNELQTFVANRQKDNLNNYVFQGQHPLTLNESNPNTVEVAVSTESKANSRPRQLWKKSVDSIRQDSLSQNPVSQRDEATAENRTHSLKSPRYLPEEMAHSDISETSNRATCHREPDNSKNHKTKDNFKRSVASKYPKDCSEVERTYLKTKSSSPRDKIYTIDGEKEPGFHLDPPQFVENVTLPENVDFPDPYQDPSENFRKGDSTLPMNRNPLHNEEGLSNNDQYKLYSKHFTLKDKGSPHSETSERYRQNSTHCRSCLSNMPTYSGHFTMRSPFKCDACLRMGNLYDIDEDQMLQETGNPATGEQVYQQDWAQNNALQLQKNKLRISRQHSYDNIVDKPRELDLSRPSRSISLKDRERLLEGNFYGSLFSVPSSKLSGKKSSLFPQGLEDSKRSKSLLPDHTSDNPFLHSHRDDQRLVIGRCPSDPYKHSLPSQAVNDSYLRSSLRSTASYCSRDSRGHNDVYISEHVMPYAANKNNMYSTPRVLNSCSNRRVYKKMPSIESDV

With `CC[C@]1(O)CC[C@@]2(C)[C@@H](CC[C@@H]3[C@@H]2CC[C@]2(CC)[C@@H]([C@H](C)CC[C@H](O)C(C)C)CC[C@@H]32)C1` [Compound F-6, (3S,5S,8R,9S,10S,13R,14S,17R)-3,13-diethyl-17-((2R,5S)-5-hydroxy-6-methylheptan-2-yl)-10-methylhexadecahydro-1H-cyclopenta[a]phenanthren-3-ol], for the setting “Table F-2”, the EC50 lay within 100 to 500 nM. `CC[C@]1(O)CC[C@@]2(C)[C@@H](CC[C@@H]3[C@@H]2CC[C@]2(CC)[C@@H]([C@H](C)CC[C@@H](O)C(C)C)CC[C@@H]32)C1` [Compound F-7, (3S,5S,8R,9S,10S,13R,14S,17R)-3,13-diethyl-17-((2R,5R)-5-hydroxy-6-methylheptan-2-yl)-10-methylhexadecahydro-1H-cyclopenta[a]phenanthren-3-ol]: where the note is “Table F-2”, the EC50 is 100 to 500 nM. On to `CC[C@]1(O)CC[C@@]2(C)[C@@H](CC[C@H]3[C@@H]4CC[C@H]([C@H](C)CC[C@H](O)C(C)C)[C@H]4CC[C@@H]32)C1` [Compound F-8, (3S,5S,8S,9S,10S,13R,14R,17R)-3-ethyl-17-((2R,5S)-5-hydroxy-6-methylheptan-2-yl)-10-methylhexadecahydro-1H-cyclopenta[a]phenanthren-3-ol], for which the EC50 (Table F-2) lay within 100 to 500 nM.

`CC[C@]1(O)CC[C@@]2(C)[C@@H](CC[C@H]3[C@@H]4CC[C@H]([C@H](C)CC[C@@H](O)C(C)C)[C@H]4CC[C@@H]32)C1` [Compound F-9, (3S,5S,8S,9S,10S,13R,14R,17R)-3-ethyl-17-((2R,5R)-5-hydroxy-6-methylheptan-2-yl)-10-methylhexadecahydro-1H-cyclopenta[a]phenanthren-3-ol]: the EC50 (Table F-2) lay within 100 to 500 nM. Take `CC[C@]1(O)CC[C@@]2(C)C(=CC[C@H]3[C@@H]4CC[C@H]([C@H](C)CC[C@@H](O)C(C)C)[C@H]4CC[C@@H]32)C1` [Compound F-10, (3S,8S,9S,10R,13R,14R,17R)-3-ethyl-17-((2R,5R)-5-hydroxy-6-methylheptan-2-yl)-10-methyl-2,3,4,7,8,9,10,11,12,13,14,15,16,17-tetradecahydro-1H-cyclopenta[a]phenanthren-3-ol]: the EC50 (Table F-2) lay within 100 to 500 nM.

Consider `CC[C@]1(O)CC[C@@]2(C)C(=CC[C@H]3[C@@H]4CC[C@H]([C@H](C)CC[C@@H](O)C(C)C)[C@@]4(CC)CC[C@@H]32)C1` [Compound F-14, (3S,8S,9S,10R,13R,14S,17R)-3,13-diethyl-17-((2R,5R)-5-hydroxy-6-methylheptan-2-yl)-10-methyl-2,3,4,7,8,9,10,11,12,13,14,15,16,17-tetradecahydro-1H-cyclopenta[a]phenanthren-3-ol], for which the EC50 (Table F-2) is 100 to 500 nM. For the compound `CC[C@]1(O)CC[C@H]2[C@@H](CC[C@@H]3[C@@H]2CC[C@]2(C)[C@@H]([C@H](C)CC[C@](C)(O)C(F)(F)F)CC[C@@H]32)C1` [Compound G-1, (3S,5S,8R,9R,10S,13R,14S,17R)-3-ethyl-13-methyl-17-((2R,5S)-6,6,6-trifluoro-5-hydroxy-5-methylhexan-2-yl)hexadecahydro-1H-cyclopenta[a]phenanthren-3-ol], where the note is “Table G-2”, the Emax was greater than 200% and the half-maximal effective concentration (EC50) lay within 1 to 100 nM. Taken in the same sequence, the figures for `CC[C@]1(O)CC[C@H]2[C@@H](CC[C@@H]3[C@@H]2CC[C@]2(C)[C@@H]([C@H](C)CC[C@@](C)(O)C(F)(F)F)CC[C@@H]32)C1` [Compound G-2, (3S,5S,8R,9R,10S,13R,14S,17R)-3-ethyl-13-methyl-17-((2R,5R)-6,6,6-trifluoro-5-hydroxy-5-methylhexan-2-yl)hexadecahydro-1H-cyclopenta[a]phenanthren-3-ol] were 100 to 200% and 500 to 1000 nM. Taken in the same sequence, the figures for `CC[C@]1(O)CC[C@@]2(CC)[C@@H](CC[C@H]3[C@@H]4CC[C@H]([C@H](C)CCCC(C)(C)O)[C@@]4(C)CC[C@@H]32)C1` [Compound G-3, (3S,5S,8S,9S,10S,13R,14S,17R)-3,10-diethyl-17-((R)-6-hydroxy-6-methylheptan-2-yl)-13-methylhexadecahydro-1H-cyclopenta[a]phenanthren-3-ol] were 100 to 200% and 1 to 100 nM. For `CC[C@]1(O)CC[C@@]2(CC)[C@@H](CC[C@H]3[C@@H]4CC[C@H]([C@H](C)CC[C@@](C)(O)C(F)(F)F)[C@@]4(C)CC[C@@H]32)C1` [Compound G-4, (3S,5S,8S,9S,10S,13R,14S,17R)-3,10-diethyl-13-methyl-17-((2R,5R)-6,6,6-trifluoro-5-hydroxy-5-methylhexan-2-yl)hexadecahydro-1H-cyclopenta[a]phenanthren-3-ol], where the note is “Table G-2”, the Emax was in the range of 100 to 200% and the EC50 lay in the range of 100 to 500 nM. Turning to `CC[C@]1(O)CC[C@@]2(CC)[C@@H](CC[C@H]3[C@@H]4CC[C@H]([C@H](C)CC[C@](C)(O)C(F)(F)F)[C@@]4(C)CC[C@@H]32)C1` [Compound G-5, (3S,5S,8S,9S,10S,13R,14S,17R)-3,10-diethyl-13-methyl-17-((2R,5S)-6,6,6-trifluoro-5-hydroxy-5-methylhexan-2-yl)hexadecahydro-1H-cyclopenta[a]phenanthren-3-ol], under “Table G-2”, the Emax was greater than 200% and the EC50 was in the range of 1 to 100 nM. In the case of `C[C@H](CC[C@](C)(O)C(F)(F)F)[C@H]1CCC[C@H]2[C@@H]3CC=C4C[C@@](C)(O)CC[C@]4(C)[C@H]3CC[C@]12C` [Compound H-1, (2S,4aR,4bS,6aR,7R,10aS,10bS)-2,4a,6a-trimethyl-7-((2R,5S)-6,6,6-trifluoro-5-hydroxy-5-methylhexan-2-yl)-1,2,3,4,4a,4b,5,6,6a,7,8,9,10,10a,10b,11-hexadecahydrochrysen-2-ol], for the setting “Table H-2”, the Emax is 100 to 200% and the EC50 was 500 to 1000 nM. Consider `C[C@H](CCC1(O)CCC(C)(C)CC1)[C@H]1CCC[C@H]2[C@@H]3CC[C@H]4C[C@](O)(C(F)(F)F)CC[C@]4(C)[C@H]3CC[C@]12C` [Compound H-3, (2S,4aS,4bS,6aR,7R,10aS,10bR,12aS)-7-((R)-4-(1-hydroxy-4,4-dimethylcyclohexyl)butan-2-yl)-4a,6a-dimethyl-2 (trifluoromethyl)octadecahydrochrysen-2-ol], for which the EC50 (Table H-2) is greater than 1000 nM. For the compound `CC[C@]1(O)CC[C@@]2(C)[C@@H](CC[C@@H]3[C@@H]2CC[C@]2(C)[C@@H]([C@H](C)CCCC(C)(C)O)CCC[C@@H]32)C1` [Compound H-4, (2S,4aS,4bS,6aR,7R,10aS,10bR,12aS)-2-ethyl-7-((R)-6-hydroxy-6-methylheptan-2-yl)-4a,6a-dimethyloctadecahydrochrysen-2-ol], for the setting “Table H-2”, the Emax was 100 to 200% and the EC50 was 100 to 500 nM.

For `CC[C@]1(O)CC[C@@]2(C)C(=CC[C@H]3[C@@H]4CCC[C@H]([C@H](C)CC[C@H](O)C(C)C)[C@@]4(C)CC[C@@H]32)C1` [Compound H-5, (2S,4aR,4bS,6aR,7R,10aS,10bS)-2-ethyl-7-((2R,5S)-5-hydroxy-6-methylheptan-2-yl)-4a,6a-dimethyl-1,2,3,4,4a,4b,5,6,6a,7,8,9,10,10a,10b,11-hexadecahydrochrysen-2-ol], where the note is “Table H-2”, the EC50 fell in the range of 100 to 500 nM.

For `CC[C@]1(O)CC[C@@]2(C)C(=CC[C@H]3[C@@H]4CCC[C@H]([C@H](C)CC[C@@H](O)C(C)C)[C@@]4(C)CC[C@@H]32)C1` [Compound H-6, (2S,4aR,4bS,6aR,7R,10aS,10bS)-2-ethyl-7-((2R,5R)-5-hydroxy-6-methylheptan-2-yl)-4a,6a-dimethyl-1,2,3,4,4a,4b,5,6,6a,7,8,9,10,10a,10b,11-hexadecahydrochrysen-2-ol], where the note is “Table H-2”, the Emax is less than 100% and the EC50 is 1 to 100 nM. On to `CC(C)[C@@H](O)CC[C@@H](C)[C@H]1CCC[C@H]2[C@@H]3CC=C4C[C@@](C)(O)CC[C@]4(C)[C@H]3CC[C@]12C` [Compound H-7, (2S,4aR,4bS,6aR,7R,10aS,10bS)-7-((2R,5S)-5-hydroxy-6-methylheptan-2-yl)-2,4a,6a-trimethyl-1,2,3,4,4a,4b,5,6,6a, 7,8,9,10,10a, 10b,11-hexadecahydrochrysen-2-ol], for which the EC50 (Table H-2) was in the range of 100 to 500 nM. With `CC(C)[C@H](O)CC[C@@H](C)[C@H]1CCC[C@H]2[C@@H]3CC=C4C[C@@](C)(O)CC[C@]4(C)[C@H]3CC[C@]12C` [Compound H-8, (2S,4aR,4bS,6aR,7R,10aS,10bS)-7-((2R,5R)-5-hydroxy-6-methylheptan-2-yl)-2,4a,6a-trimethyl-1,2,3,4,4a,4b,5,6,6a, 7,8,9,10,10a,10b,11-hexadecahydrochrysen-2-ol], for the setting “Table H-2”, the Emax is less than 100% and the EC50 lay within 100 to 500 nM. Turning to `CC[C@]1(O)CC[C@@]2(C)C(=CC[C@H]3[C@@H]4CCC[C@H]([C@H](C)CC[C@](C)(O)C(F)(F)F)[C@@]4(C)CC[C@@H]32)C1` [Compound H-9, (2S,4aR,4bS,6aR,7R,10aS,10bS)-2-ethyl-4a,6a-dimethyl-7-((2R,5S)-6,6,6-trifluoro-5-hydroxy-5-methylhexan-2-yl)-1,2,3,4,4a,4b,5,6,6a,7,8,9,10,10a,10b,11-hexadecahydrochrysen-2-ol], for the setting “Table H-2”, the EC50 was 100 to 500 nM.

The term EC50 denotes the midpoint of the concentration-response curve. The Emax is the maximal effect, on the per cent scale that the assay sets.
